Test results from patent US9351974B2, “Substituted pteridinones for the treatment of cancer” (OSI Pharmaceuticals, LLC, priority 2011, dated 2016).

biological target: T1, His-tagged full-length RSK2 (RPS6KA3) (Homo sapiens, UniProt P51812); test: RSK2 Omnia Assay for compound IC50 determination; assay type: biochemical; conditions: ATP 15 μM, n=2, read-out: Mean RSK2 Biochem IC50
T1 construct: His-tagged full-length RSK2 (RPS6KA3, Invitrogen PV3323); His; purchased Invitrogen PV3323
Description: RSK1 & RSK2 Omnia Assay Protocol for Compound IC50 Determination
The Omnia Assay (Invitrogen) has been optimized for His-tagged full length RSK1 (RPS6KA1, Millipore 14-509) and for His-tagged full-length RSK2 (RPS6KA3, Invitrogen PV3323). In this assay system, Omnia ST Peptide 6 (Invitrogen KNZ1061) functions as a substrate for RSK1 or RSK2. Phosphorylation of this SOX-containing peptide results in an increase in fluorescence at 485 nm upon excitation at 360 nm.
Assays are carried out in 384-well OptiPlates (Perkin Elmer 6007290) in a total volume of 20 μL containing RSK1 ([…]) or RSK2 ([…]), Omnia ST Peptide 6 (5 μM), ATP (15 μM, Km=16.3 μM), and test compound (variable) in RSK assay buffer (50 mM HEPES, pH 7.5, 10 mM MgCl2, 0.01% Tween-20, 1% glycerol, 1 mM DTT, 1 mM EGTA, 0.01% BSA) with 1% DMSO.
IC50s for test compounds are typically determined using an 11-point three-fold serial dilution with a final assay concentration ranging either from 170 μM to […] or from 17 μM to […]. All compound concentrations are assayed in duplicate. Initial compound dilutions are prepared at 100× concentration in 100% DMSO from a 10 mM stock solution. Compounds are further diluted 1:25 in assay buffer resulting in a 4× concentrated solution.
To run the assay 5 μL of the above 4× concentrated compound solution (or 4% DMSO for positive controls) is added to the assay plate followed by 5 μL of a solution containing peptide (20 μM) and ATP (60 μM) in assay buffer. The reaction is initiated by the addition of 10 μL of RSK1 ([…]) or RSK2 ([…]) in assay buffer, or assay buffer alone for negative controls. The increase in fluorescence due to peptide phosphorylation is monitored continuously as a function of time using a Spectramax M5 plate reader (Molecular Devices) equipped with SoftMax Pro software.
The slopes from the linear portion of progress curves are used to determine IC50 values by non-linear curve-fitting to a four-parameter equation using GraphPad Prism (GraphPad Software, Inc.) or XLFit (IDBS). IC50's are determined in duplicate (n=2) and Ki values are calculated from IC50 values using the Cheng-Prusoff equation assuming a competitive mode of inhibition.

T1 sequence (P51812 whole entry): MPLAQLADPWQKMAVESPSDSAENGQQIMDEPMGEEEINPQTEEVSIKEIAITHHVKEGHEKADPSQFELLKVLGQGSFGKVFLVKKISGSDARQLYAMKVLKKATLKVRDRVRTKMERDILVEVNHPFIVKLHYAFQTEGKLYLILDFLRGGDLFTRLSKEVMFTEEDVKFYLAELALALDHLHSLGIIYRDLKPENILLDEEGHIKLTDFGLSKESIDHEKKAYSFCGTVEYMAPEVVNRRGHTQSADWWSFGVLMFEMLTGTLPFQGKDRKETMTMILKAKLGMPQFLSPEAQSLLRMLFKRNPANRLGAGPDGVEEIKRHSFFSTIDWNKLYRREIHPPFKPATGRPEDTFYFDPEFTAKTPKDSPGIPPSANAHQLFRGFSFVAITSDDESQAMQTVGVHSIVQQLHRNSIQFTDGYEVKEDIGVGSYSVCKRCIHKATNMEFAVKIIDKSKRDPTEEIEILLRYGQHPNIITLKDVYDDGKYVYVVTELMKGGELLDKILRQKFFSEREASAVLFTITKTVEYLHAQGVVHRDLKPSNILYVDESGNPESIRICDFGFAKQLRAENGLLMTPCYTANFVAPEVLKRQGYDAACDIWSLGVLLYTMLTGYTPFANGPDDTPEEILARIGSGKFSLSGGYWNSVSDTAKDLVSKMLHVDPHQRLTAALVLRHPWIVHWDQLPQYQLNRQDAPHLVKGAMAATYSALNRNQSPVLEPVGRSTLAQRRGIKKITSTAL

IC50 [nM]	Structure (SMILES)
≤ 100	C[C@@H]1C(=O)N(c2ccc[n+]([O-])c2)c2cnc(Nc3cc(F)c4[nH]ncc4c3)nc2N1C1CCCCC1 [Example 303, (7R)-8-cyclohexyl-2-[(7-fluoro-1H-indazol-5-yl)amino]-7-methyl-5-(1-oxidopyridin-3-yl)-7,8-dihydropteridin-6(5H)-one]
≤ 100	C[C@@H]1C(=O)N(c2cccc(C#N)c2)c2cnc(Nc3cc(F)c4[nH]ncc4c3F)nc2N1C1CCCCC1 [compound 130, 3-[(7R)-8-cyclohexyl-2-[(4,7-difluoro-1H-indazol-5-yl)amino]-7-methyl-6-oxo-7,8-dihydropteridin-5(6H)-yl]benzonitrile]
> 1000	COc1cc2[nH]ncc2cc1Nc1ncc2c(n1)N(C1CCCCC1)[C@H](C)C(=O)N2c1cccc(C#N)c1 [compound 119, 3-[(7R)-8-cyclohexyl-2-[(6-methoxy-1H-indazol-5-yl)amino]-7-methyl-6-oxo-7,8-dihydropteridin-5(6H)-yl]benzonitrile]
≤ 100	CC[C@@H]1C(=O)N(c2cccc(C#N)c2)c2cnc(Nc3cc(F)c4[nH]ncc4c3)nc2N1C1CCCCC1 [compound 287, 3-[(7R)-8-cyclohexyl-7-ethyl-2-[(7-fluoro-1H-indazol-5-yl)amino]-6-oxo-7,8-dihydropteridin-5(6H)-yl]benzonitrile]
100 to 1000	CCOc1ccc(N2C(=O)[C@@H](C)N(C3CCC(F)(F)CC3)c3nc(Nc4ccc5[nH]c(=O)oc5c4)ncc32)cc1C#N [compound 284, 5-[(7R)-8-(4,4-difluorocyclohexyl)-7-methyl-6-oxo-2-[(2-oxo-2,3-dihydro-1,3-benzoxazol-6-yl)amino]-7,8-dihydropteridin-5(6H)-yl]-2-ethoxybenzonitrile]
≤ 100	COc1ccc(N2C(=O)[C@@H](C)N(C3CCCCC3)c3nc(Nc4ccc5[nH]c(=O)oc5c4)ncc32)cc1C#N [compound 165, 5-[(7R)-8-cyclohexyl-7-methyl-6-oxo-2-[(2-oxo-2,3-dihydro-1,3-benzoxazol-6-yl)amino]-7,8-dihydropteridin-5(6H)-yl]-2-methoxybenzonitrile]
≤ 100	CC(C)CCN1c2nc(Nc3ccc(C(=O)O)cc3)ncc2N(c2ccccc2)C(=O)C1C (stereo not drawn) [Example 14, 4-{[7-methyl-8-(3-methylbutyl)-6-oxo-5-phenyl-5,6,7,8-tetrahydropteridin-2-yl]amino}benzoic acid]
≤ 100	[2H]C1([2H])C(N2c3nc(Nc4cc(F)c5[nH]ncc5c4)ncc3N(c3cccc(C#N)c3)C(=O)[C@H]2C)C([2H])([2H])C([2H])([2H])C([2H])([2H])C1([2H])[2H] [compound 302, 3-[(7R)-8-[(2,2,3,3,4,4,5,5,6,6-2H10)cyclohexyl]-2-[(7-fluoro-1H-indazol-5-yl)amino]-7-methyl-6-oxo-7,8-dihydropteridin-5(6H)-yl]benzonitrile]
≤ 100	CO[C@H]1CC[C@@H](N2c3nc(Nc4ccc5[nH]c(=O)oc5c4)ncc3N(c3cccc(C#N)c3)C(=O)[C@H]2C)CC1 [compound 228, 3-[(7R)-8-(cis-4-methoxycyclohexyl)-7-methyl-6-oxo-2-[(2-oxo-2,3-dihydro-1,3-benzoxazol-6-yl)amino]-7,8-dihydropteridin-5(6H)-yl]benzonitrile]
≤ 100	C[C@@H]1C(=O)N(c2cccnc2)c2cnc(Nc3cnc4[nH]ncc4c3)nc2N1C1CCCCC1 [compound 154, (7R)-8-cyclohexyl-7-methyl-2-(1H-pyrazolo[3,4-b]pyridin-5-ylamino)-5-(pyridin-3-yl)-7,8-dihydropteridin-6(5H)-one]
≤ 100	COc1cc(N2C(=O)[C@@H](C)N(C3CCCCC3)c3nc(Nc4ccc5[nH]ncc5c4)ncc32)ccc1F [Example 54, (7R)-8-cyclohexyl-5-(4-fluoro-3-methoxyphenyl)-2-(1H-indazol-5-ylamino)-7-methyl-7,8-dihydropteridin-6(5H)-one]
≤ 100	CCOc1ccc(N2C(=O)[C@@H](C)N(C3CCOCC3)c3nc(Nc4cc(F)c5[nH]c(=O)oc5c4)ncc32)cc1C#N [compound 204, 2-Ethoxy-5-[(7R)-2-[(4-fluoro-2-oxo-2,3-dihydro-1,3-benzoxazol-6-yl)amino]-7-methyl-6-oxo-8-(tetrahydro-2H-pyran-4-yl)-7,8-dihydropteridin-5(6H)-yl]benzonitrile]
≤ 100	N#Cc1cccc(N2C(=O)[C@@H](CF)N(C3CCCC3)c3nc(Nc4cc(F)c5[nH]ncc5c4)ncc32)c1 [Example 221, 3-[(7S)-8-cyclopentyl-2-[(7-fluoro-1H-indazol-5-yl)amino]-7-(fluoromethyl)-6-oxo-7,8-dihydropteridin-5(6H)-yl]benzonitrile]
≤ 100	C[C@@H]1C(=O)N(c2cccnc2)c2cnc(Nc3cc(F)c4[nH]ncc4c3)nc2N1C1CCC(C)(C)CC1 [Example 208, (7R)-8-(4,4-dimethylcyclohexyl)-2-[(7-fluoro-1H-indazol-5-yl)amino]-7-methyl-5-(pyridin-3-yl)-7,8-dihydropteridin-6(5H)-one]
≤ 100	CCOc1ccc(N2C(=O)[C@@H](C)N(C3CCOCC3)c3nc(Nc4cnc5[nH]ncc5c4)ncc32)cc1C#N [compound 201, 2-Ethoxy-5-[(7R)-7-methyl-6-oxo-2-(1H-pyrazolo[3,4-b]pyridin-5-ylamino)-8-(tetrahydro-2H-pyran-4-yl)-7,8-dihydropteridin-5(6H)-yl]benzonitrile]
≤ 100	CC1C(=O)N(c2ccccc2)c2cnc(Nc3ccc4c(c3)CC(=O)N4)nc2N1C1CCCCC1 (stereo not drawn) [Example 60, 8-cyclohexyl-7-methyl-2-[(2-oxo-2,3-dihydro-1H-indol-5-yl)amino]-5-phenyl-7,8-dihydropteridin-6(5H)-one]
≤ 100	COc1cccc(N2c3nc(Nc4cc(F)c5[nH]ncc5c4)ncc3N(c3cccc(C#N)c3)C(=O)[C@H]2C)c1 [compound 181, 3-[(7R)-2-[(7-fluoro-1H-indazol-5-yl)amino]-8-(3-methoxyphenyl)-7-methyl-6-oxo-7,8-dihydropteridin-5(6H)-yl]benzonitrile]
≤ 100	C[C@@H]1C(=O)N(c2ccc(N3CCN(C)CC3)c(C#N)c2)c2cnc(Nc3cc(F)c4[nH]ncc4c3)nc2N1C1CCOCC1 [compound 206, 5-[(7R)-2-[(7-fluoro-1H-indazol-5-yl)amino]-7-methyl-6-oxo-8-(tetrahydro-2H-pyran-4-yl)-7,8-dihydropteridin-5(6H)-yl]-2-(4-methylpiperazin-1-yl)benzonitrile]
100 to 1000	COc1ccc(N2C(=O)[C@@H](C)N(C3CCC(F)(F)CC3)c3nc(Nc4ccc5[nH]c(=O)oc5c4)ncc32)cc1C#N [compound 283, 5-[(7R)-8-(4,4-difluorocyclohexyl)-7-methyl-6-oxo-2-[(2-oxo-2,3-dihydro-1,3-benzoxazol-6-yl)amino]-7,8-dihydropteridin-5(6H)-yl]-2-methoxybenzonitrile]
100 to 1000	C[C@@H]1C(=O)N(c2cccc(C#N)c2)c2cnc(Nc3ccc4sncc4c3)nc2N1C1CCCCC1 [compound 109, 3-[(7R)-2-(1,2-benzothiazol-5-ylamino)-8-cyclohexyl-7-methyl-6-oxo-7,8-dihydropteridin-5(6H)-yl]benzonitrile]
≤ 100	COCc1cccc(N2C(=O)[C@@H](C)N(C3CCCCC3)c3nc(Nc4ccc5[nH]ncc5c4)ncc32)c1 [compound 110, (7R)-8-cyclohexyl-2-(1H-indazol-5-ylamino)-5-[3-(methoxymethyl)phenyl]-7-methyl-7,8-dihydropteridin-6(5H)-one]
≤ 100	CC1C(=O)N(c2ccccc2)c2cnc(Nc3ccc4c(c3)CC(=O)N4)nc2N1C1CCCC1 (stereo not drawn) [Example 65, 8-cyclopentyl-7-methyl-2-[(2-oxo-2,3-dihydro-1H-indol-5-yl)amino]-5-phenyl-7,8-dihydropteridin-6(5H)-one]
100 to 1000	C[C@@H]1C(=O)N(c2ccc(OC(F)(F)F)cc2)c2cnc(Nc3ccc4[nH]ncc4c3)nc2N1C1CCCCC1 [Example 33, (7R)-8-cyclohexyl-2-(1H-indazol-5-ylamino)-7-methyl-5-[4-(trifluoromethoxy)phenyl]-7,8-dihydropteridin-6(5H)-one]
≤ 100	C[C@@H]1C(=O)N(c2cc(F)cc(F)c2)c2cnc(Nc3ccc4[nH]ncc4c3)nc2N1C1CCCCC1 [compound 95, (7R)-8-cyclohexyl-5-(3,5-difluorophenyl)-2-(1H-indazol-5-ylamino)-7-methyl-7,8-dihydropteridin-6(5H)-one]
